Results as given in paper PMC9006213, “Multifunctional, Multivalent PIC Polymer Scaffolds for Targeting Antigen-Specific, Autoreactive B Cells” (ACS Biomaterials Science & Engineering, 2022).

Assays:
B-cell compartments = conditions: clinical use; cited from earlier work
From the text: These autoreactive MBCs likely exert pathogenic effector functions through the co-stimulation of T cells, the production of pro-inflammatory cytokines, and the recruitment of neutrophils to sites of the local inflammation.[1] The involvement of these cells in the inflammatory disease process is addi ...

[1] = test system: ACPA-expressing B cells in peripheral blood of RA patients; experiment: Identification and immunophenotyping of primary ACPA-expressing B cells in peripheral blood of RA patients; assay type: cell-based, human; conditions: median; n = 5; PICs and SA tetramer
Procedure: Having determined the specificity of CCP-PIC-AF647 and its ability to detect small subpopulations of B cells, we used the combination of PICs to identify and characterize the primary ACPA-expressing B cells in the peripheral blood of five RA patients. […] The median frequency was determined at approximately 0.007% cells out of total B cells (Figure 5A,B). To assess whether the characteristics of the patient’s ACPA-expressing B cells were consistent with previous data, we also examined various B-cell subset-defining markers such as CD20, CD27, IgG-class B-cell receptors, and the activation surface marker CD80 (Figure 5B).
Each dot represents one patient sample. Connected dots depict data from individual patient samples. Statistical differences between groups were determined using the Wilcoxon test. (ns, p > 0.05).
To identify and characterize ACPA-expressing B cells in RA blood, PBMC were isolated from peripheral blood of RA donors as above.
For stimulation experiments, ACPA-expressing Ramos B cells were used. Ramos cells were transduced with ACPA-encoding lentiviral vectors 8. Ramos cells were cultured in RPMI 1640 (Thermofisher) supplemented with 8% FCS, 100 U/ml PS, 2 mM GlutaMax and 10 mM HEPES).
To determine which ratio of CCP and fluorophore in PIC to use, two ratios of CCP-AF647 were tested, i.e. 10:1 and 2:1. […]

[2] = test system: patient-derived ACPA and immortalized ACPA-expressing B cells; conditions: cited from earlier work
From the text: To study the application of PICs for the detection of ACPA-expressing B cells, we prepared a set of fluorescently labeled PICs containing CCP and arginine-containing control peptides (CArgP, Figure 1B), as well as tetrameric CCP-SA and CArgP-SA containing the same fluorophores (Figure 1C).[15] […] In CArgP, the citrulline residue that is essential for recognition by ACPA is replaced by an arginine. Besides the ...

Rituximab: broadly B-cell depleting agent approved for clinical use
depletion of B-cell compartments (B-cell compartments): depletes the naïve and MBC compartments but leaves the compartment of antibody-secreting cells largely intact

polyisocyanopeptides [PICs]
ACPA-expressing B cells positive for memory B cell markers CD20 and CD27 [1]: 50%

cyclic citrullinated peptide [CCP]
recognition by ACPA and ACPA-expressing B cells [2]: recognized by both patient-derived ACPA and immortalized ACPA-expressing B cells
